This is an account of results in patent US9181288B2, “Azepane derivatives and methods of treating hepatitis B infections” (Novira Therapeutics, Inc., priority 2014, dated 2015).

Test [1] has as its system HBV replication in HepG2-2.2.15 cells. Put plainly: Inhibition of HBV replication dot-blot assay. It is filed as cell-based. The following applies: Hepatitis B virus, 144 h, six days, reduction in HBV DNA levels. The method, then: Compounds active in the HBV assembly assay are tested for their activity and toxicity in cellular assay. In the first anti-viral assay, the ability of compounds to inhibit HBV replication in an HBV-producing hepatoma cell line using the dot-blot method is evaluated.
Briefly, confluent monolayers of HepG2-2.2.15 cells are incubated with complete medium containing various concentrations of a test compound. Three days later, the culture medium is replaced with fresh medium containing the appropriately diluted test compound. Six days following the initial administration of the test compound, the cell culture supernatant is collected, and cell lysis is performed. The samples are applied onto Nylos membranes and DNA is immobilized to the membrane by UV cross-linking. After pre-hybridization, the HBV probe is added and the hybridization is performed overnight. The membranes are exposed to the Kodak films; antiviral activity is calculated from the reduction in HBV DNA levels (EC50). The EC50 for antiviral activity is calculated from the dose response curves of active compounds. Assay performance over time is monitored by the use of the standard positive control compounds ETV, BAY 41-4109, and HAP-1.
Selected compounds were tested for their activity and toxicity in cellular assay. In the first anti-viral assay, the ability of compounds to inhibit HBV replication in an HBV-producing hepatoma cell line using the dot-blot method was evaluated.
Confluent monolayers of HepG2-2.2.15 cells were incubated with complete medium containing various concentrations of a test compound. Three days later, the culture medium was replaced with fresh medium containing the appropriately diluted test compound. Six days following the initial administration of the test compound, the cell culture supernatant was collected, and cell lysis was performed. The samples were applied onto Nylos membranes and DNA was immobilized to the membrane by UV cross-linking. After pre-hybridization, the HBV probe was added and the hybridization was performed overnight. The membranes were exposed to the Kodak films; antiviral activity was calculated from the reduction in HBV DNA levels (EC50). The EC50 for antiviral activity was calculated from the dose response curves of active compounds. Assay performance over time was monitored by the use of the standard positive control compounds ETV, BAY 41-4109, and HAP-1.

Test [2] addresses HBV C150Bo capsid protein (mutant C150 HBV core protein labeled with BODIPY-FL) (Hepatitis B virus genotype D subtype adw, UniProt P03147, C107A/C48A/C61A/R150C). Put plainly: HBV assembly assay (fluorescence quenching in vitro capsid assembly). The test is classed as biochemical. The following applies: at about 10 μM; 50 mM Hepes pH 7.5, 150 mM NaCl, 1 hour room temperature.

One may read the inhibition as the relative decrease from the control value, in per cent. A lower inhibition goes with a response near the control.

Chain of HBV C150Bo capsid protein (mutant C150 HBV core protein labeled with BODIPY-FL) (P03147 1-150 C48A/C61A/C107A/R150C): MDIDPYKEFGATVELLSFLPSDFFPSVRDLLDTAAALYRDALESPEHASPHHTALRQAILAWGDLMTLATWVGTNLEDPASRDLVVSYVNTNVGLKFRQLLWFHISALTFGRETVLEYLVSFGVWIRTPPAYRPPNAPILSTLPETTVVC

With `O=C(Nc1ccc(F)c(F)c1)c1ccc(F)c(S(=O)(=O)N2CCCC(F)[C@@H](O)C2)c1` (stereo partly drawn) [Compound 1821_D1], the inhibition at 10 µM in test [1] is greater than 50%. Besides, the “Activity (HBV assembly assay)” value in test [2] is on record as “+ (‘+’ indicates >50% activity at about 10 μM)”.
In test [1], `CC(=O)O[C@@H]1CC[C@H](OC(C)=O)CN(S(=O)(=O)c2cc(C(=O)Nc3cc(F)c(F)c(F)c3)ccc2F)C1` [Compound 2625_D2] displayed an inhibition at 10 µM greater than 50%. Further, the “Activity (HBV assembly assay)” value in test [2] was “+ (‘+’ indicates >50% activity at about 10 μM)”.
On the same counts, the results for `O=C(Nc1cc(F)c(F)c(F)c1)c1ccc(F)c(S(=O)(=O)N2CC(O)CC3CC3C2)c1` (stereo not drawn) [Compound 2548] are greater than 50% and “+ (‘+’ indicates >50% activity at about 10 μM)”.
For `O=C(Nc1ccc(F)c(Cl)c1)c1ccc(F)c(S(=O)(=O)N2CCCC(F)CC2)c1` (stereo not drawn) [Compound 2123], in that order: greater than 50% and “+ (‘+’ indicates >50% activity at about 10 μM)”.
On the same counts, the results for `CC(=O)O[C@@H]1CC[C@H](O)CN(S(=O)(=O)c2cc(C(=O)Nc3ccc(F)c(Cl)c3)ccc2F)C1` [Compound 2619_D2] are greater than 50% and “+ (‘+’ indicates >50% activity at about 10 μM)”.
In turn, `O=C(Nc1cc(F)c(F)c(F)c1)c1ccc(F)c(S(=O)(=O)N2CCC(O)C(F)(F)CC2)c1` (stereo not drawn) [Compound 2202] came in with an inhibition at 10 µM in test [1] greater than 50%. In addition, in test [2], the “Activity (HBV assembly assay)” value was “+ (‘+’ indicates >50% activity at about 10 μM)”.
On the same counts, the results for `O=C(Nc1ccc(F)c(Cl)c1)c1ccc(F)c(S(=O)(=O)N2C[C@H](O)CC[C@H](O)C2)c1` [Compound 2433_D2, N-(3-chloro-4-fluoro-phenyl)-3-(3,6-dihydroxyazepan-1-yl)sulfonyl-4-fluoro-benzamide] are greater than 50% and “+ (‘+’ indicates >50% activity at about 10 μM)”.
For `O=C(Nc1cc(F)c(F)c(F)c1)c1ccc(F)c(S(=O)(=O)N2CCCC(O)C(F)(F)C2)c1` (stereo not drawn) [Compound 2199], in that order: greater than 50% and “+ (‘+’ indicates >50% activity at about 10 μM)”.
For `O=C(Nc1cc(F)c(F)c(F)c1)c1ccc(CF)c(S(=O)(=O)N2CCCCCC2)c1` [Compound 2002], in that order: greater than 50% and “+ (‘+’ indicates >50% activity at about 10 μM)”.
For the compound `O=C(Nc1ccc(F)c(Cl)c1)c1ccc(F)c(S(=O)(=O)N2CCOC[C@H](O)C2)c1` [Compound 1893_E2], the inhibition at 10 µM in test [1] was greater than 50%. For the same compound, the “Activity (HBV assembly assay)” value in test [2] is recorded as “+ (‘+’ indicates >50% activity at about 10 μM)”.
For `CC(=O)O[C@@H]1CC[C@@H](O)CN(S(=O)(=O)c2cc(C(=O)Nc3cc(F)c(F)c(F)c3)ccc2F)C1` [Compound 2618_D1], in that order: greater than 50% and “+ (‘+’ indicates >50% activity at about 10 μM)”.
On the same counts, the results for `O=C(Nc1ccc(F)c(Cl)c1)c1ccc(F)c(S(=O)(=O)N2CCOC[C@@H](O)C2)c1` [Compound 1893_E1] are greater than 50% and “+ (‘+’ indicates >50% activity at about 10 μM)”.
For the compound `O=C(Nc1ccc(F)c(Cl)c1)c1cc(S(=O)(=O)N2CCCC(O)CC2)c2[nH]cnc2c1` (stereo not drawn) [Compound 2033], in test [1], the inhibition at 10 µM is greater than 50%. In test [2], the “Activity (HBV assembly assay)” value is on record as “+ (‘+’ indicates >50% activity at about 10 μM)”.
Turning to `O=C(Nc1cc(F)c(F)c(F)c1)c1cccc(S(=O)(=O)N2CCOCC(O)C2)c1` (stereo not drawn) [Compound 1975], in test [1], the inhibition at 10 µM is greater than 50%. The “Activity (HBV assembly assay)” value in test [2] is listed as “+ (‘+’ indicates >50% activity at about 10 μM)”.
On the same counts, the results for `O=C(Nc1ccc(F)c(Cl)c1)c1ccc(CO)c(S(=O)(=O)N2CCCC(F)CC2)c1` (stereo not drawn) [Compound 1769] are greater than 50% and “+ (‘+’ indicates >50% activity at about 10 μM)”.
For `Cc1ccc(C(=O)Nc2ccc(F)c(Cl)c2)cc1S(=O)(=O)N1CCCC(O)CC1` (stereo not drawn) [Compound 1910], in that order: greater than 50% and “+ (‘+’ indicates >50% activity at about 10 μM)”.
Compound `O=C(Nc1ccc(F)c(F)c1)c1ccc(F)c(S(=O)(=O)N2CCCC(F)[C@H](O)C2)c1` (stereo partly drawn) [Compound 1821_D2] displayed an inhibition at 10 µM in test [1] greater than 50%. The “Activity (HBV assembly assay)” value in test [2] was “+ (‘+’ indicates >50% activity at about 10 μM)”.
`O=C(Nc1ccc(F)c(Cl)c1)c1ccc(CO)c(S(=O)(=O)N2CCCCC(F)C2)c1` (stereo not drawn) [Compound 1768]: in test [1], the inhibition at 10 µM was greater than 50%. Moreover, the “Activity (HBV assembly assay)” value in test [2] is “+ (‘+’ indicates >50% activity at about 10 μM)”.
The compound `COc1ccc(C(=O)Nc2ccc(F)c(F)c2)cc1S(=O)(=O)N1CCOCC(O)C1` (stereo not drawn) [Compound 1979] displayed an inhibition at 10 µM in test [1] greater than 50%. Moreover, the “Activity (HBV assembly assay)” value in test [2] is “+ (‘+’ indicates >50% activity at about 10 μM)”.
On the same counts, the results for `CC1(O)CCCCN(S(=O)(=O)c2cc(C(=O)Nc3ccc(F)c(Cl)c3)ccc2F)C1` (stereo not drawn) [Compound 1890] are greater than 50% and “+ (‘+’ indicates >50% activity at about 10 μM)”.
In turn, `O=C(Nc1ccc(F)c(Cl)c1)c1ccc(CF)c(S(=O)(=O)N2CCCCCC2)c1` [Compound 2004] gave an inhibition at 10 µM in test [1] greater than 50%. The “Activity (HBV assembly assay)” value in test [2] is “+ (‘+’ indicates >50% activity at about 10 μM)”.
For the compound `CC1(O)CCCCN(S(=O)(=O)c2cc(C(=O)Nc3ccc(F)c(F)c3)ccc2F)C1` (stereo not drawn) [Compound 1891], in test [1], the inhibition at 10 µM is greater than 50%. The “Activity (HBV assembly assay)” value in test [2] is listed as “+ (‘+’ indicates >50% activity at about 10 μM)”.
In test [1], `O=C(Nc1ccc(F)c(Cl)c1)c1ccc(CF)c(S(=O)(=O)N2CCCC(O)CC2)c1` (stereo not drawn) [Compound 1819] gave an inhibition at 10 µM greater than 50%. The “Activity (HBV assembly assay)” value in test [2] is reported as “+ (‘+’ indicates >50% activity at about 10 μM)”.
For `CC1(O)CCCN(S(=O)(=O)c2cc(C(=O)Nc3ccc(F)c(F)c3)ccc2F)CC1` (stereo not drawn) [Compound 1938], in that order: greater than 50% and “+ (‘+’ indicates >50% activity at about 10 μM)”.
For `O=C(Nc1ccc(F)c(Cl)c1)c1ccc(F)c(S(=O)(=O)N2CC(O)CC3CC3C2)c1` (stereo not drawn) [Compound 2492], in that order: greater than 50% and “+ (‘+’ indicates >50% activity at about 10 μM)”.
For `O=C(Nc1ccc(F)c(Cl)c1)c1ccc(F)c(S(=O)(=O)N2CCCC[C@H](O)C2)c1` [Compound 1763_E2], in that order: greater than 50% and “+ (‘+’ indicates >50% activity at about 10 μM)”.
In turn, `CC(=O)OC1CCCCN(S(=O)(=O)c2cc(C(=O)Nc3cc(F)c(F)c(F)c3)ccc2F)C1` (stereo not drawn) [Compound 2024] registered an inhibition at 10 µM in test [1] greater than 50%. In addition, the “Activity (HBV assembly assay)” value in test [2] is reported as “+ (‘+’ indicates >50% activity at about 10 μM)”.
For `CC1(O)COCCN(S(=O)(=O)c2cc(C(=O)Nc3ccc(F)c(Cl)c3)ccc2F)C1` (stereo not drawn) [Compound 1986], in test [1], the inhibition at 10 µM was greater than 50%. Further, the “Activity (HBV assembly assay)” value in test [2] is “+ (‘+’ indicates >50% activity at about 10 μM)”.
On the same counts, the results for `Cc1ccc(C(=O)Nc2ccc(F)c(F)c2)cc1S(=O)(=O)N1CCCCC(O)C1` (stereo not drawn) [Compound 1914] are greater than 50% and “+ (‘+’ indicates >50% activity at about 10 μM)”.
For `CC(=O)O[C@@H]1CC[C@H](O)CN(S(=O)(=O)c2cc(C(=O)Nc3cc(F)c(F)c(F)c3)ccc2F)C1` [Compound 2618_D2], in that order: greater than 50% and “+ (‘+’ indicates >50% activity at about 10 μM)”.
For `CC1(O)CCCN(S(=O)(=O)c2cc(C(=O)Nc3cc(F)c(F)c(F)c3)ccc2CF)CC1` (stereo not drawn) [Compound 1829-2], in that order: greater than 50% and “+ (‘+’ indicates >50% activity at about 10 μM)”.
In the case of `O=C(Nc1ccc(F)c(Cl)c1)c1cccc(S(=O)(=O)N2CCOCC(O)C2)c1` (stereo not drawn) [Compound 1977], the inhibition at 10 µM in test [1] is greater than 50%. In test [2], the “Activity (HBV assembly assay)” value is recorded as “+ (‘+’ indicates >50% activity at about 10 μM)”.
For `O=C(Nc1cc(F)c(F)c(F)c1)c1ccc(F)c(S(=O)(=O)N2CCCCC(F)(F)C2)c1` [Compound 2121], in that order: greater than 50% and “+ (‘+’ indicates >50% activity at about 10 μM)”.
